Results from patent US20140155420A1, “INHIBITORS OF EYA2” (The Regents of the University of Colorado, a body corporate, priority 2011, published 2014).
“Also recorded” adds a separate entry of the source.

Experiments:
Eya2 ED = target: T1, Eya2 ED (Homo sapiens, UniProt O00167); details: no extra Mg2+ added
T1 sequence (O00167 253-538): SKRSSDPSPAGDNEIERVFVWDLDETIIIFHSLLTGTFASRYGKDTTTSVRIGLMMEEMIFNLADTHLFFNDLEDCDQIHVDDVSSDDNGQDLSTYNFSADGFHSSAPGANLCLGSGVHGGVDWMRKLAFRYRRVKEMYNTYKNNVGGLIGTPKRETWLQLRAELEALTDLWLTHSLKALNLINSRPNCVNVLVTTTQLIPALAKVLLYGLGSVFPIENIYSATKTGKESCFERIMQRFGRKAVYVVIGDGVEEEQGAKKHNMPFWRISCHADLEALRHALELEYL
Experimental: In order to provide evidence for the binding between hydrazides with Eya2, thermal shift experiments were performed to evaluate if Eya2 melting temperature (Tm) could be positively shifted in the presence of different concentrations of hydrazides. Compounds were serially diluted in DMSO in 96-well polypropylene plates (Thermo Fisher Scientific). A mixture of 49 μl of Eya2 and SYPRO Orange (5000× stock solution, Invitrogen) were transferred to a 96-well skirted thin-wall PCR plate (Bio-Rad) with a final concentration of 1 μM and 5×, respectively. Compounds prepared in the aforementioned mother plate were subsequently added to the protein-dye mixture, with final concentrations ranging from 0.34 nM to 200 μM (final volume 50 μl). DMSO alone was also transferred within each compound dilution series as a control sample. DMSO concentration was consistent across each dilution series and was maintained at 2%. The plate was sealed with Optical-Quality Sealing Tape (Bio-Rad) and was centrifuged at 1000 rpm for 20 s before heating commenced. Plate heating was performed on an iQ5 real-time PCR detection system (Bio-Rad) from 20 to 95° C. with an increment of 1° C. and a ramping rate of 0.1° C./s. A CCD camera was used to measure SYPRO Orange fluorescence through a filter set corresponding to excitation and emission wavelengths of 490 and 575 nm, respectively. […]

[1] = UV-Vis spectra with Na+ titration; format: physicochemical; details: acetonitrile
Experimental: In order to elicit any possible weak association to Mg^2+, the inventors moved on to the organic solvent acetonitrile (Hojo et al., 2002). […] The solutions were prepared such that the absorbance was within the 0-1 range. They observed a dose-dependent shift in the maximum absorbance wavelength (λmax), from 322 nm (0 mM Mg^2+) to 334 nm (100 mM Mg^2+) (FIGS. 11B, 11C). The inventors conducted a similar study with Na where the compound concentration was kept at 12.5 μM and the sodium perchlorate concentration ranged from 0 to 25 mM.

[2] = UV-Vis spectra with Mg2+ titration; format: physicochemical; details: acetonitrile; for λmax without Mg2+ / λmax with Mg2+: 25 μM compound; for λmax without Mg2+: 0 mM Mg2+
Experimental: Compounds were dissolved in acetonitrile at a final concentration of 25 μM with final Mg^2+ concentration at 0, 0.5, 1, 5, 10, 25, 50, 100 and 200 mM. UV-visible spectra were obtained using an Agilent 8453 UV-Visible Spectrophotometer (Agilent Technologies) in 0.1 cm quartz cuvette at room temperature.
In order to elicit any possible weak association to Mg^2+, the inventors moved on to the organic solvent acetonitrile (Hojo et al., 2002). […] The solutions were prepared such that the absorbance was within the 0-1 range.

[3] = tested on: Six1/Eya2-mediated transcription; experiment: MEF3-promoter luciferase assay in MCF7 cells; format: cell-based; details: compound incubated 48 hours
Experimental: MCF7 cells were plated in 24-well plates at 25,000 cells/well. 24 hours later, cells were transfected with 300 ng/well pGL3-6xMEF3 (a promoter-luciferase construct in which the promoter contains 6 well characterized Six1 MEF3 binding sites (Spitz et al., 1998)), 70 ng/well renilla luciferase, 100 ng/well pcDNA3.1 Six1, and 200 ng/well of pcDNA3.1-FLAG-Eya2 using FuGENE 6 (Roche Applied Science) transfection reagent. The following day the media was changed and 24 hours later lysates were prepared and analyzed with the Dual Luciferase Kit (Promega) on a Modulus Microplate (Turner Biosystems). An Eya2 phosphatase-dead mutant (D274N) was also used in place of wild type Eya2 to evaluate the effect of Eya2's phosphatase activity on transcription. To assay the effect of Eya2 phosphatase inhibitors on transcriptional activity, compound was added 24 hours after transfection and incubated for 48 hours before lysates were prepared and analyzed for luciferase activity as described above. All results were normalized to renilla activity to account for transfection efficiency and transcriptional activity was normalized to Eya2 protein expression in the Eya2 D274N rescue experiment. The inhibitory effect of the compounds was normalized to vehicle-treated control and statistical significance was determined by performing a one-way ANOVA with Dunnett's post-test on the natural log transformed normalized transcriptional activity.

## O=C(O)CN(CCN(CC(=O)O)CC(=O)O)CC(=O)O [EDTA]
Eya2 ED
  Effect on ED melting temperature (Tm): reduces Tm

## O=C(N/N=C/c1ccc(Sc2ccccn2)o1)c1cccc(F)c1 [MLS000544460]
[1]
  λmax when titrated with Na+: 323 nm
[2]
  Intrinsic affinity for Mg2+: very weak intrinsic affinity
  λmax without Mg2+: 322 nm
[2]; 100 mM Mg2+
  λmax with Mg2+: 334 nm
[3]
  Effect on Six1/Eya2-mediated transcription from the MEF3-luciferase reporter: inhibit
[3]; listed as MLS00044460
  Effect on Six1/Eya2-mediated transcription from the MEF3-luciferase reporter: diminish

## Cc1ccccc1C(=O)N/N=C/c1ccc(Sc2ccccn2)o1 [MLS000585814]
[2]
  λmax without Mg2+: 316 nm
[2]; 50 mM Mg2+
  λmax with Mg2+: 327 nm
[3]
  Effect on Six1/Eya2-mediated transcription from the MEF3-luciferase reporter: diminish; also recorded: inhibit

## O=C(N/N=C/c1ccc(Sc2ccccn2)o1)c1ccncc1 [NCGC00241224]
[3]
  Effect on Six1/Eya2-mediated transcription from the MEF3-luciferase reporter: does not significantly affect; also recorded: does not significantly inhibit
